Key:
[1] = system: LDL; assay: Protection against LDL oxidation by copper (conjugated diene formation); assay type: biochemical; details: for rate of LDL oxidation: FIG. 8b, absence of compounds 2.5; for kinetics of LDL oxidation (lag phase): FIG. 5a, no control value printed; for LDL oxidation rate: FIG. 5b, absence of compounds 2; for rate of diene formation: FIG. 2b, copper alone 2.2; for diene formation rate: FIG. 4b, absence of compounds 1.9
Method: Unless otherwise indicated, the reagents were from Sigma (St Quentin, France). LDL were prepared according to the method described by Lebeau et al. (Lebeau, Furman et al. 2000).
The solutions of test compounds were prepared at 10^−2 M concentration in bicarbonate buffer (pH 9) and diluted in PBS to obtain final concentrations ranging from 0.1 to 100 μM
Prior to oxidation, EDTA was removed from the LDL preparation by dialysis. Oxidation then took place at 30° C. by adding 100 μl of 16.6 μM CuSO4 solution to 160 μL of LDL (125 μg protein/ml) and 20 μl of a test compound solution. The formation of dienes, the species under observation, was followed by measuring optical density at 232 nm in the samples treated with the compounds in the presence or absence of copper. Optical density at 232 nm was measured every 10 minutes for 8 hours in a thermostated spectrophotometer (Tecan Ultra 380). The analyses were performed in triplicate. The compounds were considered to have antioxidant activity when they induced a longer lag phase and reduced the rate of oxidation and the amount of dienes formed in comparison with the control sample.

[2] = target: T1, PPARα (Homo sapiens, UniProt Q07869); assay: PPARα/Gal4 transactivation system in COS-7 cells; assay type: cell-based; details: 24 hours
T1 construct: expressed in transfected cells; host or cells: COS-7 cells
T1 sequence (Q07869 239-466 limits assumed): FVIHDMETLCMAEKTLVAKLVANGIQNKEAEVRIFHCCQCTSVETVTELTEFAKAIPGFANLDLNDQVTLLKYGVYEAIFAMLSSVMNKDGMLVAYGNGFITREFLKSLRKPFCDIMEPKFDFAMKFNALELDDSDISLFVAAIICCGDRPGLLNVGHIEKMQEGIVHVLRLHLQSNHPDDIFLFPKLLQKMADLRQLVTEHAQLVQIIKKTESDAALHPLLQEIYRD
Method: (§1) COS-7 cells were incubated with different concentrations of the inventive compounds for 24 hours. The results are expressed as the induction factor (ratio of luminescent signal obtained with the compound and that observed without the compound) after the different treatments.
(§2) PPAR activation was tested in vitro in RK13 epitheloid or COS-7 cell lines by measuring the transcriptional activity of chimeras composed of the DNA binding domain of the yeast gal4 transcription factor and the ligand binding domain of the different PPARs. These latter results were then confirmed in cell lines according to the following protocols:
(§3) RK13 cells were from ECACC (Porton Down, UK), COS-7 cells were from the ATCC (American Type Culture Collection) and were grown in DMEM medium supplemented with 10% (VN) fetal calf serum, 100 U/ml penicillin (Gibco, Paisley, UK) and 2 mM L-glutamine (Gibco, Paisley, UK). The culture medium was changed every two days. Cells were kept at 37° C. in a humidified 95% air/5% CO2 atmosphere.
(§4) The plasmids pG5TkpGL3, pRL-CMV, pGal4-hPPARα, pGal4-hPPARγ, pGal4-hPPARδ and pGal4-φ have been described by Raspe, Madsen et al. (1999). The pGal4-mPPARα, pGal4-hPPARγ and pGal4-hPPARδ constructs were obtained by cloning into the pGal4-φ vector of PCR-amplified DNA fragments corresponding to the DEF domains of the human PPARα, PPARγ and PPARδ nuclear receptors.
(§5) RK13 cells were seeded in 24-well culture dishes at 5×10^4 cells/well, COS-7 cells in 96-well culture dishes at 5×10^4 cells/well and transfected for 2 hours with the reporter plasmid pG5TkpGL3 (50 ng/well), the expression vectors pGal4-φ, pGal4-mPPARα, pGal4-hPPARα, pGal4-hPPARγ, pGal4-hPPARδ (100 ng/well) and the transfection efficiency control vector pRL-CMV (1 ng/well) according to the previously described protocol (Raspe, Madsen et al. 1999), then incubated for 36 hours with the test compounds. At the end of the experiment, the cells were lysed (Gibco, Paisley, UK) and luciferase activity was determined with a Dual-Luciferase™ Reporter Assay System kit (Promega, Madison, Wis., USA) for RK13 cells and Steady Glow Luciferase (Promega) for COS-7 cells according to the supplier's instructions as previously described. The protein content of the cell extracts was then measured with the Bio-Rad Protein Assay (Bio-Rad, Munich, Germany) as directed by the supplier.

[3] = target: T2, PPARγ (Homo sapiens, UniProt P37231); assay: PPARγ/Gal4 transactivation system in COS-7 cells; assay type: cell-based; details: 24 hours
T2 construct: expressed in transfected cells; host or cells: COS-7 cells
T2 sequence (P37231 238-503 limits assumed): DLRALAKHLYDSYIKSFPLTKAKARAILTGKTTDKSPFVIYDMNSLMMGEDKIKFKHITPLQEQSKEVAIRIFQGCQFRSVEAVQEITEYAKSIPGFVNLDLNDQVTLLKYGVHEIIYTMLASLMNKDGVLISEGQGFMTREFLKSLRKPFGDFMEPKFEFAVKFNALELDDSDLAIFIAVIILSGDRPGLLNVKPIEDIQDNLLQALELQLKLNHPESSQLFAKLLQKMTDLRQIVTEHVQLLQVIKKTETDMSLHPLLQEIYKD
Method: as §1, §2, §3, §4, §5

[4] = FIG. 8a, 10^−4M, absence of compounds 67.3 minutes
[5] = FIG. 5c, 10^−4M, absence of compounds 386
[6] = FIG. 2a, 10^−4M, copper alone 132 minutes
[7] = FIG. 2c, 10^−4M, copper alone 511
[8] = FIG. 4a, 10^−4M, copper alone 61 minutes
[9] = FIG. 4c, 10^−4M, absence of compound 370.9
[10] = FIG. 7a, 10^−4M, absence of compounds 67.3 minutes

Cc1cc(C(=O)/C=C/c2cc(C)c(OC(C)(C)C(=O)O)c(C)c2)cc(C)c1OCCN1CCOCC1 [compound 43, 1-(3,5-Dimethyl-4-(morpholin-4-ylethyloxy)phenyl)-3-(4-carboxydimethylmethyloxy-3,5-dimethylphenyl)prop-2-en-1-one]
lag phase [1, 4]: 97 min | rate of LDL oxidation ([1]; 10^−4M): 2.2 nmol/min/mg

Cc1cc(C(=O)/C=C/c2cc(C)c(OC(C)(C)C(=O)O)c(C)c2)cc(C)c1OCCSC1CCCCC1 [compound 27, 1-(4-Cyclohexylthioethyloxy-3,5-dimethylphenyl)-3-(4-carboxydimethylmethyloxy-3,5-dimethylphenyl)prop-2-en-1-one]
kinetics of LDL oxidation (lag phase) ([1]; 10^−4M): 170.8 min | LDL oxidation rate ([1]; 10^−4M): 0.8 nmol/min/mg | total amount of dienes formed [1, 5]: 374 nmol/mg

Cc1cc(C(=O)/C=C/c2cc(C)c(OC(C)(C)C(=O)O)c(C)c2)cc(C)c1O [compound 4, 1-(4-Hydroxy-3,5-dimethylphenyl)-3-(4-carboxydimethylmethyloxy-3,5-dimethylphenyl)prop-2-ene-1-one]
lag phase [1, 6]: 401 min | rate of diene formation ([1]; 10^−4M): 0.2 nmol/min/mg | total amount of dienes formed [1, 7]: 138 nmol/mg | Induction factor ([2]; 1 μM): 1.67 | Induction factor ([2]; 10 μM): 9.92 | Induction factor ([3]; 1 μM): 2.00 | Induction factor ([3]; 10 μM): 5.82

CCCCCCOc1c(C)cc(C(=O)/C=C/c2cc(C)c(OC(C)(C)C(=O)O)c(C)c2)cc1C [compound 19, 1-(4-Hexyloxy-3,5-dimethylphenyl)-3-(4-carboxydimethylmethyloxy-3,5-dimethylphenyl)prop-2-en-1-one]
lag phase [1, 8]: 92.5 min | diene formation rate ([1]; 10^−4M): 1.6 nmol/min/mg of LDL | total amount of dienes formed [1, 9]: 346.6 nmol/mg of LDL

COc1ccc(OC)c(C(=O)/C=C/c2cc(C)c(OC(C)(C)C(=O)O)c(C)c2)c1 [compound 41, 1-(2,5-Dimethoxyphenyl)-3-(4-carboxydimethylmethyloxy-3,5-dimethylphenyl)prop-2-en-1-one]
lag phase [1, 10]: 100 min | total amount of dienes formed ([1]; FIG. 7c, 10^−4M, absence of compounds 432.5): 403 nmol/mg of LDL

Cc1cc(/C=C/C(=O)c2ccc(OCCSC3CCCCC3)cc2)cc(C)c1OC(C)(C)C(=O)O [compound 23, 1-(4-Cyclohexylthioethyloxyphenyl)-3-(4-carboxydimethylmethyloxy-3,5-dimethylphenyl)prop-2-en-1-one]
lag phase [1, 8]: 96.4 min | diene formation rate ([1]; 10^−4M): 1.3 nmol/min/mg of LDL | total amount of dienes formed [1, 9]: 340.3 nmol/mg of LDL | Induction factor ([2]; 0.0003 μM): 0.92 | Induction factor ([2]; 0.001 μM): 1.11 | Induction factor ([2]; 0.003 μM): 1.33 | Induction factor ([2]; 0.01 μM): 2.35 | Induction factor ([2]; 0.03 μM): 4.22 | Induction factor ([2]; 0.1 μM): 7.16 | Induction factor ([2]; 0.3 μM): 8.08 | Induction factor ([2]; 1 μM): 8.35 | Induction factor ([2]; 3 μM): 7.15 | Induction factor ([3]; 0.0003 μM): 1.02 | Induction factor ([3]; 0.001 μM): 1.43 | Induction factor ([3]; 0.003 μM): 2.86 | Induction factor ([3]; 0.01 μM): 3.48 | Induction factor ([3]; 0.03 μM): 5.04 | Induction factor ([3]; 0.1 μM): 6.17 | Induction factor ([3]; 0.3 μM): 6.84 | Induction factor ([3]; 1 μM): 7.24 | Induction factor ([3]; 3 μM): 6.98

Cc1cc(/C=C/C(=O)c2ccc(OCCC3CCCCC3)cc2)cc(C)c1OC(C)(C)C(=O)O [compound 11, 1-(4-Cyclohexylethyloxyphenyl)-3-(4-carboxydimethylmethyloxy-3,5-dimethylphenyl)prop-2-en-1-one]
lag phase (maximum) ([1]; FIG. 3a, 3.3×10^−5M, absence of compound 87.2 minutes): 210 min | lag phase ([1]; FIG. 3a, 10^−6 M, absence of compound 87.2 minutes): 101.5 min

COc1c(C)cc(C(=O)/C=C/c2cc(C)c(OC(C)(C)C(=O)O)c(C)c2)cc1C [compound 17, 1-(4-Methoxy-3,5-dimethylphenyl)-3-(4-carboxydimethylmethyloxy-3,5-dimethylphenyl)prop-2-en-1-one]
lag phase [1, 4]: 148 min | rate of LDL oxidation ([1]; 10^−4M): 1.8 nmol/min/mg

COc1ccc(C(=O)/C=C/c2cc(C)c(OC(C)(C)C(=O)O)c(C)c2)cc1C [compound 37, 1-(4-Methoxy-3-methylphenyl)-3-(4-carboxydimethylmethyloxy-3,5-dimethylphenyl)prop-2-en-1-one]
lag phase ([1]; FIG. 6a, 10^−4M, absence of compound 56 minutes): 106 min | oxidation rate ([1]; FIG. 6b, 10^−4M, absence of compound 2): 1.8 nmol/min/mg of LDL | total amount of dienes formed ([1]; FIG. 6c, 10^−4M, absence of compound 360.0): 326.9 nmol/mg of LDL | Induction factor ([2]; 0.01 μM): 1.54 | Induction factor ([2]; 0.03 μM): 2.54 | Induction factor ([2]; 0.1 μM): 7.89 | Induction factor ([2]; 0.3 μM): 17.25 | Induction factor ([2]; 1 μM): 19.77 | Induction factor ([2]; 3 μM): 16.89

COc1ccc(C(=O)/C=C/c2cc(C)c(OC(C)(C)C(=O)O)c(C)c2)cc1C(F)(F)F [compound 47, 1-(4-Methoxy-3-trifluoromethylphenyl)-3-(4-carboxydimethylmethyloxy-3,5-dimethylphenyl)prop-2-en-1-one]
lag phase [1, 10]: 126.5 min

Cc1cc(C)c(C(=O)/C=C/c2cc(C)c(OC(C)(C)C(=O)O)c(C)c2)cc1C [compound 25, 1-(2,4,5-Trimethylphenyl)-3-(4-carboxydimethylmethyloxy-3,5-dimethylphenyl)prop-2-en-1-one]
kinetics of LDL oxidation (lag phase) ([1]; 10^−4M): 87.6 min | LDL oxidation rate ([1]; 10^−4M): 1.6 nmol/min/mg | total amount of dienes formed [1, 5]: 365 nmol/mg

CSc1ccc(C(=O)/C=C/c2cc(Br)c(OC(C)(C)C(=O)O)c(Br)c2)cc1 [compound 8, 1-(4-Methylthiophenyl)-3-(4-carboxydimethylmethyloxy-3,5-dibromophenyl)prop-2-ene-1-one]
lag phase [1, 6]: 169 min | rate of diene formation ([1]; 10^−4M): 1.7 nmol/min/mg | total amount of dienes formed [1, 7]: 474 nmol/mg | Induction factor ([2]; 1 μM): 15.67 | Induction factor ([2]; 10 μM): 12.66 | Induction factor ([3]; 1 μM): 2.13 | Induction factor ([3]; 10 μM): 2.74

COc1ccc(C(=O)/C=C/c2cc(C)c(OC(C)(C)C(=O)O)c(C)c2)cc1F [compound 35, 1-(4-Methoxy-3-fluorophenyl)-3-(4-carboxydimethylmethyloxy-3,5-dimethylphenyl)prop-2-en-1-one]
Induction factor ([2]; 0.003 μM): 1.41 | Induction factor ([2]; 0.01 μM): 1.54 | Induction factor ([2]; 0.03 μM): 2.53 | Induction factor ([2]; 0.1 μM): 7.47 | Induction factor ([2]; 0.3 μM): 15.51 | Induction factor ([2]; 1 μM): 24.33 | Induction factor ([2]; 3 μM): 23.70 | Induction factor ([2]; 10 μM): 21.03

— patent publication US7547729B2, “1,3-diphenylprop-2-en-1-one derivative compounds, preparation method thereof and uses of same” (Genfit, priority 2004, dated 2009)
